From patent US20090030064A1, “Sugar-coated preparation” (Takeda Pharmaceutical Company Limited, priority 2005, published 2009)

Test: Reference Example 1: bulk powder left in air, residual ratio
Type: physicochemical
Conditions: 40° C. and 75% RH in the air, 1 month
Method: A bulk powder of Compound A and sodium ascorbate were respectively left to stand for 1 month at 40° C. and 75% RH in the air, and then residual ratios thereof were measured. As a result, the residual ratio of Compound A was 89.7% (W/W), and the residual ratio of sodium ascorbate was 99.0% (W/W). Quantification of Compound A was carried out by a HPLC method under the following conditions. Solvent: acetonitrile Measurement wavelength: 287 nm Column: CHIRALCEL OJ-R 4.6 mm×150 mm (manufactured by Daicel Chemical Industries, Ltd.) Mobile phase: mixed solution of acetonitrile/10 mM aqueous ammonium acetate solution (16:9) Oven temperature: around 25° C. Quantification of sodium ascorbate was carried out by an iodine titration technique (solvent: metaphosphoric acid solution (1→50), indicator: starch test solution).

residual ratio	Structure (SMILES)
99.0 % (W/W)	O=C1O[C@H]([C@@H](O)CO)C([O-])=C1O.[Na+] [sodium ascorbate]
89.7 % (W/W)	COc1cc2c(cc1OC)CN(c1c(C)c(C)c3c(c1C)[C@@H](c1ccc(C)cc1)C(C)(C)O3)C2 [Compound A, (R)-5,6-dimethoxy-2-[2,2,4,6,7-pentamethyl-3-(4-methylphenyl)-2,3-dihydro-1-benzofuran-5-yl]isoindoline]
